# Experimental data: patent US11993573B2, “Chromane-substituted, tetrahydroquinoline-substituted and thiochromane-substituted heteroarotinoids as anti-cancer agents” (THE BOARD OF REGENTS FOR OKLAHOMA STATE UNIVERSITY, priority 2018, dated 2024)
# Where two headings read alike, the source gives them in different places.
# Assays:
# [1] = tested on: human ovarian cancer cell line A2780; test: Growth inhibition assay (CellTiter 96 Non-Rad Cell Proliferation Assay); type: cell-based; conditions: Homo sapiens
# Protocol: To illustrate the general activity of the compounds inhibiting growth of human […] ovarian cancer cells, selected compounds were synthesized and evaluated. The compounds were dissolved in DMSO at a concentration of 0.01 M. The human ovarian cancer cell line A2780 was plated in 96-well tissue culture dishes at a concentration of 3000 cells per well in RPMI medium supplemented with 10% fetal bovine serum and a mixture of antibiotics and antimycotics. The next day, the cultures were treated in triplicate with compound concentrations ranging from 2 μM to 8 μM increments. For compound 12, additional experiments were performed with concentrations of 10 μM and a series of two-fold dilutions to 156 nM. Control cultures were treated with DMSO solvent only. After 72 h of incubation, the […] 96® Non-Rad Cell Proliferation Assay (Promega) was used to quantify the remaining metabolically living cells. After subtracting blank values, the optical density (OD) readouts of the assay for the treated cultures were normalized with the average OD of the control cultures. For each compound, the experiment was repeated at least once, resulting in a minimum of 6 dose-response curves. For SHetA2, 24 response curves were available for statistical fitting parameters. A custom program was written in GNU Octave, a free software compatible with Matlab, to fit the dose-response curves with a four-parameter sigmoid function, extracting the IC50 and efficacy (the maximal % growth inhibition) parameters.
# To illustrate the useful biological activity of these chroman-substituted and tetrahydroquinoline-substituted heteroarotinoids, the compounds were screened against human […] ovarian cancer cells.
# [2] = tested on: 60 cancer cell lines available from the National Cancer Institute; conditions: SHetA2, background; cited from earlier work
# [3] = SHetA2, background; cited from earlier work
# [4] = A2780, 72 h, Table 2, tetrahydroquinoline-containing members
# [5] = A2780, 72 h, Table 2, maximal % growth inhibition, A2780, 72 h, read-out: Efficacy
Structure (SMILES),"IC50 [1, 4] [µM]","Emax [1, 5] [%]",melting point [°C],also measured
"CN1c2ccc(NC(=S)Nc3ccc(OC(F)(F)F)cc3)cc2C(C)(C)C(=O)C1(C)C [Compound 11f, 1-(1,2,2,4,4-Pentamethyl-3-oxo-1,2,3,4-tetrahydroquinolin-6-yl)-3-(4-(trifluoromethoxy)phenyl)thiourea]",5.4,76,83 to 85,
"CN1c2ccc(NC(=S)Nc3ccc([N+](=O)[O-])cc3)cc2C(C)(C)CC1(C)C [Compound 12, 3-(1,2,2,4,4-Pentamethyl-1,2,3,4-tetrahydroquinolin-6-yl)-1-(4-nitrophenyl)thiourea]",4.49,91.7,151 to 153,
"CN1c2ccc(NC(=O)Nc3ccc([N+](=O)[O-])cc3)cc2C(C)(C)C(O)C1(C)C (centres unmarked) [Compound 13a, 1-(3-Hydroxy-1,2,2,4,4-pentamethyl-1,2,3,4-tetrahydroquinolin-6-yl)-3-(4-nitrophenyl)urea]",8.4,26,215 to 217,
"CN1c2ccc(NC(=O)Nc3ccc(C(F)(F)F)cc3)cc2C(C)(C)C(O)C1(C)C (centres unmarked) [Compound 13c, 1-(3-Hydroxy-1,2,2,4,4-pentamethyl-1,2,3,4-tetrahydroquinolin-6-yl)-3-(4-(trifluoromethyl)phenyl)urea]",6.7,25,213 to 215,
"CN1c2ccc(NC(=S)Nc3ccc(C(F)(F)F)cc3)cc2C(C)(C)C(O)C1(C)C (centres unmarked) [Compound 13d, 1-(3-Hydroxy-1,2,2,4,4-pentamethyl-1,2,3,4-tetrahydroquinolin-6-yl)-3-(4-(trifluoromethyl)phenyl)thiourea]",7.6,56.1,105 to 107,
"CN1c2ccc(NC(=O)Nc3ccc(OC(F)(F)F)cc3)cc2C(C)(C)C(O)C1(C)C (centres unmarked) [Compound 13e, 1-(3-Hydroxy-1,2,2,4,4-pentamethyl-1,2,3,4-tetrahydroquinolin-6-yl)-3-(4-(trifluoromethoxy)phenyl)urea]",7.8,23.6,188 to 189,
"CN1c2ccc(NC(=S)Nc3ccc(OC(F)(F)F)cc3)cc2C(C)(C)C(O)C1(C)C (centres unmarked) [Compound 13f, 1-(3-Hydroxy-1,2,2,4,4-pentamethyl-1,2,3,4-tetrahydroquinolin-6-yl)-3-(4-(trifluoromethoxy)phenyl)thiourea]",13.1,15.3,97 to 99,
"CC1(C)CC(C)(C)c2cc(NC(=S)Nc3ccc([N+](=O)[O-])cc3)ccc2S1 [SHetA2, reference compound]",3.17,84.3,,"IC50 ([1]; A2780, 72 h, Table 1, chroman-containing series): 3.17 µM; Emax ([1]; A2780, 72 h, Table 1, maximal % growth inhibition, A2780, 72 h, read-out: Efficacy): 84.3%; IC50 ([1]; A2780, Table 3, 14 series (thiochroman), A2780): 3.17 ± 0.1 µM; Emax ([1]; A2780, Table 3, 14 series, A2780, read-out: % Efficacy): 84.3 ± 0.7%; IC50 ([1]; A2780, running text, A2780): 3 µM; growth inhibition of cancer cell lines [2]: inhibits the growth of all 60 cancer cell lines; birth defects in animal studies [3]: does not cause birth defects; skin irritation [3]: no skin irritation; toxicity toward normal tissues [3]: essentially no toxicity toward normal tissues"
